Drawing on ChEMBL document CHEMBL1127285, “N-alkyl quinuclidinium substance P antagonists” (Bioorg Med Chem Lett, 1994), this text covers IC50 for five compounds.

As usually defined, the IC50 is the point on the concentration scale where inhibition reaches its midpoint.

In this experiment the target is Substance-P receptor (Homo sapiens, UniProt P25103). Description: Compound was tested in vitro for its Tachykinin receptor 1 affinity by the displacement of [125I]Bolton-Hunter substance p from human IM-9 cells. In kind it is cell-based. (In a radioligand displacement assay an active substance lowers the binding of a labelled ligand.)
Substance-P receptor, sequence (P25103 whole entry): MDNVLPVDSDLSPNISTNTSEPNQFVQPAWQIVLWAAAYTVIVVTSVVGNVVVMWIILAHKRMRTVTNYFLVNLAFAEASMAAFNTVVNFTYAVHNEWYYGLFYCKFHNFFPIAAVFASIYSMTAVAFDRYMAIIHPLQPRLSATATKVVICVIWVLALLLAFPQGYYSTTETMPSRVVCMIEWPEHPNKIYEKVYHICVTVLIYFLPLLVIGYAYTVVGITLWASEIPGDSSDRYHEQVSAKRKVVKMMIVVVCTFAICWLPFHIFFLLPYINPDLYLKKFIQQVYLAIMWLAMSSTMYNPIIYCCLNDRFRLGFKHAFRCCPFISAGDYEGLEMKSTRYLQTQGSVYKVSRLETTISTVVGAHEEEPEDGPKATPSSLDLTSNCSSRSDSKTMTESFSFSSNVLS

`COc1ccccc1CN[C@H]1C2CC[N+](Cc3ccccc3)(CC2)[C@H]1C(c1ccccc1)c1ccccc1` displayed an IC50 of 332 nM.

As for `COc1ccccc1CN[C@H]1C2CC[N+](C)(CC2)[C@H]1C(c1ccccc1)c1ccccc1`, the IC50 was 12.2 nM. With `CCOC(=O)C[N+]12CCC(CC1)[C@H](NCc1ccccc1OC)[C@@H]2C(c1ccccc1)c1ccccc1` the figure was 32.7 nM. Next, `C=CC[N+]12CCC(CC1)[C@H](NCc1ccccc1OC)[C@@H]2C(c1ccccc1)c1ccccc1`: 22.3 nM; `COc1ccccc1CN[C@H]1C2CC[N+](CC(N)=O)(CC2)[C@H]1C(c1ccccc1)c1ccccc1`: 1.3 nM.
